Measured values from patent US4442044A, “Process for preparing monoesters and diesters of N-alkyl substituted amino methyl phosphonic acid” (priority 1983, dated 1984).

Assays:
Assay in all cases: post-emergent herbicidal activity, greenhouse
Assay type in all cases: in vivo
Canada Thistle = conditions: Table I, 4 WAT
Summary of the method: (§1)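 Post-emergence foliar spray at tabulated application rates, using aliquots of a 1.0% stock in acetone, THF or water plus ~0.4% emulsifier, applied to 2–3-week-old greenhouse plants. Plant injury was rated relative to controls roughly two and four weeks after treatment.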

Cocklebur = system: Cocklebur
Summary of the method: as §1

Crabgrass = conditions: Table II
Summary of the method: as §1

Hemp Sesbania = conditions: Table II
Summary of the method: as §1

Quackgrass = conditions: Table I, 4 WAT
Summary of the method: as §1

Smartweed = system: Smartweed
Summary of the method: as §1

Soybean = conditions: Table II
Summary of the method: as §1

Sugar Beet = conditions: Table II
Summary of the method: as §1

Velvetleaf = system: Velvetleaf
Summary of the method: as §1

`CC(C#N)OP(=O)(O)CNCC(=O)OCCCl` (stereo not drawn) [Example 7, glycine, N-[[(1-cyanoethoxy)hydroxyphosphinyl]methyl], 2-chloroethyl ester] was tested, and the “post-emergent herbicidal activity index” value (Canada Thistle; 5.6 kg/h) was 2 (50-74% control), the “post-emergent herbicidal activity index” value (Canada Thistle; 11.2 kg/h) was 2 (50-74% control) and the “post-emergent herbicidal activity index” value (Cocklebur; Table I, 4 WAT, 5.6 kg/h) was 4 (100% control). For the same compound, the “post-emergent herbicidal activity index” value (Cocklebur; Table I, 4 WAT, 11.2 kg/h) was 3 (75-99% control), the “post-emergent herbicidal activity index” value (Cocklebur; Table II, 2 WAT, 0.01 kg/h) was 0 (0-24% control) and the “post-emergent herbicidal activity index” value (Cocklebur; Table II, 4 WAT, 0.06 kg/h) was 0 (0-24% control). The “post-emergent herbicidal activity index” value (Cocklebur; Table II, 4 WAT, 0.28 kg/h) was 2 (50-74% control), the “post-emergent herbicidal activity index” value (Cocklebur; Table II, 4 WAT, 1.12 kg/h) was 2 (50-74% control) and the “post-emergent herbicidal activity index” value (Cocklebur; Table II, 4 WAT, 5.6 kg/h) was 3 (75-99% control). For the same compound, the “post-emergent herbicidal activity index” value (Crabgrass; 2 WAT, 0.01 kg/h) was 2 (50-74% control), the “post-emergent herbicidal activity index” value (Crabgrass; 4 WAT, 0.06 kg/h) was 3 (75-99% control) and the “post-emergent herbicidal activity index” value (Hemp Sesbania; 4 WAT, 0.06 kg/h) was 0 (0-24% control). The “post-emergent herbicidal activity index” value (Hemp Sesbania; 4 WAT, 0.28 kg/h) was 3 (75-99% control), the “post-emergent herbicidal activity index” value (Hemp Sesbania; 4 WAT, 1.12 kg/h) was 2 (50-74% control) and the “post-emergent herbicidal activity index” value (Hemp Sesbania; 4 WAT, 5.6 kg/h) was 4 (100% control). For the same compound, the “post-emergent herbicidal activity index” value (Quackgrass; 5.6 kg/h) was 2 (50-74% control), the “post-emergent herbicidal activity index” value (Quackgrass; 11.2 kg/h) was 0 (0-24% control) and the “post-emergent herbicidal activity index” value (Smartweed; Table I, 4 WAT, 5.6 kg/h) was 4 (100% control). The “post-emergent herbicidal activity index” value (Smartweed; Table I, 4 WAT, 11.2 kg/h) was 4 (100% control), the “post-emergent herbicidal activity index” value (Smartweed; Table II, 2 WAT, 0.01 kg/h) was 0 (0-24% control) and the “post-emergent herbicidal activity index” value (Smartweed; Table II, 4 WAT, 0.06 kg/h) was 1 (25-49% control). The “post-emergent herbicidal activity index” value (Smartweed; Table II, 4 WAT, 0.28 kg/h) was 4 (100% control), the “post-emergent herbicidal activity index” value (Smartweed; Table II, 4 WAT, 1.12 kg/h) was 3 (75-99% control) and the “post-emergent herbicidal activity index” value (Smartweed; Table II, 4 WAT, 5.6 kg/h) was 4 (100% control). The “post-emergent herbicidal activity index” value (Soybean; 2 WAT, 0.01 kg/h) was 0 (0-24% control), the “post-emergent herbicidal activity index” value (Soybean; 4 WAT, 0.06 kg/h) was 0 (0-24% control) and the “post-emergent herbicidal activity index” value (Soybean; 4 WAT, 0.28 kg/h) was 1 (25-49% control). The “post-emergent herbicidal activity index” value (Soybean; 4 WAT, 1.12 kg/h) was 2 (50-74% control), the “post-emergent herbicidal activity index” value (Soybean; 4 WAT, 5.6 kg/h) was 3 (75-99% control) and the “post-emergent herbicidal activity index” value (Sugar Beet; 2 WAT, 0.01 kg/h) was 0 (0-24% control). The “post-emergent herbicidal activity index” value (Sugar Beet; 4 WAT, 0.06 kg/h) was 0 (0-24% control), the “post-emergent herbicidal activity index” value (Sugar Beet; 4 WAT, 0.28 kg/h) was 4 (100% control) and the “post-emergent herbicidal activity index” value (Sugar Beet; 4 WAT, 1.12 kg/h) was 3 (75-99% control). For the same compound, the “post-emergent herbicidal activity index” value (Sugar Beet; 4 WAT, 5.6 kg/h) was 4 (100% control), the “post-emergent herbicidal activity index” value (Velvetleaf; Table I, 4 WAT, 5.6 kg/h) was 3 (75-99% control) and the “post-emergent herbicidal activity index” value (Velvetleaf; Table I, 4 WAT, 11.2 kg/h) was 3 (75-99% control). For the same compound, the “post-emergent herbicidal activity index” value (Velvetleaf; Table II, 2 WAT, 0.01 kg/h) was 0 (0-24% control), the “post-emergent herbicidal activity index” value (Velvetleaf; Table II, 4 WAT, 0.06 kg/h) was 1 (25-49% control) and the “post-emergent herbicidal activity index” value (Velvetleaf; Table II, 4 WAT, 0.28 kg/h) was 2 (50-74% control). The “post-emergent herbicidal activity index” value (Velvetleaf; Table II, 4 WAT, 1.12 kg/h) was 2 (50-74% control) and the “post-emergent herbicidal activity index” value (Velvetleaf; Table II, 4 WAT, 5.6 kg/h) was 3 (75-99% control).
In the case of `CC(C#N)OP(=O)(O)CNCC(=O)OCc1ccccc1` (stereo not drawn) [Example 10, glycine, N-[[(1-cyanoethoxy)hydroxyphosphinyl]methyl]-,phenylmethyl ester], the “post-emergent herbicidal activity index” value (Canada Thistle; 5.6 kg/h) is reported as 1 (25-49% control), the “post-emergent herbicidal activity index” value (Canada Thistle; 11.2 kg/h) is reported as 2 (50-74% control) and the “post-emergent herbicidal activity index” value (Cocklebur; Table I, 4 WAT, 5.6 kg/h) is reported as 2 (50-74% control). For the same compound, the “post-emergent herbicidal activity index” value (Cocklebur; Table I, 4 WAT, 11.2 kg/h) was 2 (50-74% control), the “post-emergent herbicidal activity index” value (Cocklebur; Table II, 2 WAT, 0.011 kg/h) was 0 (0-24% control) and the “post-emergent herbicidal activity index” value (Cocklebur; Table II, 2 WAT, 0.056 kg/h) was 0 (0-24% control). The “post-emergent herbicidal activity index” value (Cocklebur; Table II, 4 WAT, 0.28 kg/h) was 1 (25-49% control), the “post-emergent herbicidal activity index” value (Cocklebur; Table II, 4 WAT, 1.12 kg/h) was 2 (50-74% control) and the “post-emergent herbicidal activity index” value (Cocklebur; Table II, 4 WAT, 5.6 kg/h) was 3 (75-99% control). For the same compound, the “post-emergent herbicidal activity index” value (Crabgrass; 2 WAT, 0.011 kg/h) was 0 (0-24% control), the “post-emergent herbicidal activity index” value (Crabgrass; 2 WAT, 0.056 kg/h) was 1 (25-49% control) and the “post-emergent herbicidal activity index” value (Crabgrass; 4 WAT, 0.28 kg/h) was 4 (100% control). For the same compound, the “post-emergent herbicidal activity index” value (Crabgrass; 4 WAT, 1.12 kg/h) was 4 (100% control), the “post-emergent herbicidal activity index” value (Crabgrass; 4 WAT, 5.6 kg/h) was 4 (100% control) and the “post-emergent herbicidal activity index” value (Hemp Sesbania; 2 WAT, 0.011 kg/h) was 0 (0-24% control). The “post-emergent herbicidal activity index” value (Hemp Sesbania; 2 WAT, 0.056 kg/h) was 0 (0-24% control), the “post-emergent herbicidal activity index” value (Hemp Sesbania; 4 WAT, 1.12 kg/h) was 1 (25-49% control) and the “post-emergent herbicidal activity index” value (Hemp Sesbania; 4 WAT, 5.6 kg/h) was 1 (25-49% control). For the same compound, the “post-emergent herbicidal activity index” value (Quackgrass; 5.6 kg/h) was 2 (50-74% control), the “post-emergent herbicidal activity index” value (Quackgrass; 11.2 kg/h) was 2 (50-74% control) and the “post-emergent herbicidal activity index” value (Smartweed; Table I, 4 WAT, 11.2 kg/h) was 4 (100% control). The “post-emergent herbicidal activity index” value (Smartweed; Table II, 2 WAT, 0.011 kg/h) was 0 (0-24% control), the “post-emergent herbicidal activity index” value (Smartweed; Table II, 2 WAT, 0.056 kg/h) was 0 (0-24% control) and the “post-emergent herbicidal activity index” value (Smartweed; Table II, 4 WAT, 0.28 kg/h) was 4 (100% control). For the same compound, the “post-emergent herbicidal activity index” value (Smartweed; Table II, 4 WAT, 1.12 kg/h) was 4 (100% control), the “post-emergent herbicidal activity index” value (Smartweed; Table II, 4 WAT, 5.6 kg/h) was 4 (100% control) and the “post-emergent herbicidal activity index” value (Soybean; 2 WAT, 0.011 kg/h) was 0 (0-24% control). For the same compound, the “post-emergent herbicidal activity index” value (Soybean; 2 WAT, 0.056 kg/h) was 1 (25-49% control), the “post-emergent herbicidal activity index” value (Soybean; 4 WAT, 0.28 kg/h) was 1 (25-49% control) and the “post-emergent herbicidal activity index” value (Soybean; 4 WAT, 1.12 kg/h) was 1 (25-49% control). For the same compound, the “post-emergent herbicidal activity index” value (Soybean; 4 WAT, 5.6 kg/h) was 3 (75-99% control), the “post-emergent herbicidal activity index” value (Sugar Beet; 2 WAT, 0.011 kg/h) was 0 (0-24% control) and the “post-emergent herbicidal activity index” value (Sugar Beet; 2 WAT, 0.056 kg/h) was 0 (0-24% control). For the same compound, the “post-emergent herbicidal activity index” value (Sugar Beet; 4 WAT, 0.28 kg/h) was 3 (75-99% control), the “post-emergent herbicidal activity index” value (Sugar Beet; 4 WAT, 1.12 kg/h) was 2 (50-74% control) and the “post-emergent herbicidal activity index” value (Sugar Beet; 4 WAT, 5.6 kg/h) was 3 (75-99% control). For the same compound, the “post-emergent herbicidal activity index” value (Velvetleaf; Table I, 4 WAT, 5.6 kg/h) was 3 (75-99% control), the “post-emergent herbicidal activity index” value (Velvetleaf; Table I, 4 WAT, 11.2 kg/h) was 3 (75-99% control) and the “post-emergent herbicidal activity index” value (Velvetleaf; Table II, 2 WAT, 0.011 kg/h) was 0 (0-24% control). For the same compound, the “post-emergent herbicidal activity index” value (Velvetleaf; Table II, 2 WAT, 0.056 kg/h) was 0 (0-24% control), the “post-emergent herbicidal activity index” value (Velvetleaf; Table II, 4 WAT, 0.28 kg/h) was 1 (25-49% control) and the “post-emergent herbicidal activity index” value (Velvetleaf; Table II, 4 WAT, 1.12 kg/h) was 1 (25-49% control). For the same compound, the “post-emergent herbicidal activity index” value (Velvetleaf; Table II, 4 WAT, 5.6 kg/h) was 1 (25-49% control).
